Laboratory results published in US8163793B2, “Proline derivatives” (Hoffman-La Roche Inc., priority 2009, dated 2012).
Counter-ions that a name gives are not always drawn.

Tests used:
Cathepsin S = Cathepsin S (UniProt P25774); assay: Cathepsin enzyme inhibition assay (fluorogenic peptide substrate Z-Val-Val-Arg-AMC), Cathepsin S; type: biochemical, human and mouse; conditions: enzyme 1 nM, substrate 20 μM, pH 6.5; read-out: CatS IC50
How it was run: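 Compounds were combined with 1 nM human or mouse enzyme, and substrate then started the reaction. The buffer was potassium phosphate (100 mM, pH 6.5) containing EDTA-Na 5 mM, Triton X-100 0.001% and […] 5 mM.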

Cat L = Cat L (UniProt P07711); assay: Cathepsin enzyme inhibition assay (fluorogenic peptide substrate Z-Val-Val-Arg-AMC), Cathepsin L; type: biochemical, human and mouse; conditions: enzyme 1 nM, substrate 20 μM, pH 6.5; read-out: CatL IC50
How it was run: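 Fluorogenic cleavage of Z-Val-Val-Arg-AMC (20 μM) by 1 nM Cat L was monitored at ex 360/em 465 nm for 20 min, the linear phase. The buffer was 100 mM potassium phosphate pH 6.5 with 5 mM EDTA and DTT. IC50 values were derived by standard methods, in μM.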

Row | IC50 (Cathepsin S) | IC50 (Cat L) | Compound
1 | 0.9 nM | ≥ 25000 nM | Cc1ccc(=O)n(-c2ccc(S(=O)(=O)[C@H]3CN[C@H](C(=O)NC4(C#N)CC4)C3)c(C(F)(F)F)c2)n1 [Example 23, (2S,4R)-4-[4-(3-M ethyl-6-oxo-6H-pyridazin-1-yl)-2-trifluoromethyl-benzenesulfonyl]-pyrrolidine-2-carboxylic acid (1-cyano-cyclopropyl)-amide hydrochloride]
2 | 6.6 nM | ≥ 25000 nM | N#CC1(NC(=O)[C@@H]2C[C@@H](S(=O)(=O)c3ccccc3)CN2C(=O)C2CCOCC2)CC1 [Example 74, (2S,4R)-4-Benzenesulfonyl-1-(tetrahydro-pyran-4-carbonyl)-pyrrolidine-2-carboxylic acid (1-cyano-cyclopropyl)-amide]
3 | 3.7 nM | 16500 nM | N#CC1(NC(=O)[C@@H]2C[C@@H](S(=O)(=O)c3ccc(OC4COC4)cc3Cl)CN2)CC1 [Example 181, (2S,4R)-4-[2-Chloro-4-(oxetan-3-yloxy)-benzenesulfonyl]-pyrrolidine-2-carboxylic acid (1-cyano-cyclopropyl)-amide]
4 | 2 nM | 6000 nM | N#CC1(NC(=O)[C@@H]2C[C@@H](S(=O)(=O)c3ccc(N4CCCCC4)cc3Cl)CN2)CC1 [Example 127, (2S,4R)-4-(2-Chloro-4-piperidin-1-yl-benzenesulfonyl)-pyrrolidine-2-carboxylic acid (1-cyano-cyclopropyl)-amide]
5 | 0.9 nM | 23400 nM | CC(=O)N1C[C@H](S(=O)(=O)c2ccc(N3CCCCC3)cc2Cl)C[C@H]1C(=O)NC1(C#N)CC1 [Example 133, (2S,4R)-1-Acetyl-4-(2-chloro-4-piperidin-1-yl-benzenesulfonyl)-pyrrolidine-2-carboxylic acid (1-cyano-cyclopropyl)-amide formiate]
6 | 85.5 nM | ≥ 25000 nM | CC(C)(C)c1ccc([C@@H]2N[C@](CCS(=O)(=O)c3ccccc3)(C(=O)NC3(C#N)CC3)C[C@H]2S(=O)(=O)c2ccccc2)cc1 [Example 441, (2S,4R,5S)-5-(4-tert-butylphenyl)-N-(1-cyanocyclopropyl)-4-(phenylsulfonyl)-2-(2-(phenylsulfonyl)ethyl)pyrrolidine-2-carboxamide]
7 | 32 nM | ≥ 25000 nM | N#CC1(NC(=O)[C@@H]2C[C@@H](S(=O)(=O)c3ccc(F)cc3F)CN2)CC1 [Example 17, (2S,4R)-4-(2,4-Difluoro-benzenesulfonyl)-pyrrolidine-2-carboxylic acid (1-cyano-cyclopropyl)-amide Hydrochloride]
8 | 9.4 nM | ≥ 25000 nM | N#CC1(NC(=O)[C@@H]2C[C@@H](S(=O)(=O)c3ccccc3Cl)CN2C2CCCCC2)CC1 [Example 85, (2S,4R)-4-(2-Chloro-benzenesulfonyl)-1-cyclohexyl-pyrrolidine-2-carboxylic acid (1-cyano-cyclopropyl)-amide]
9 | 1.5 nM | 5160 nM | CCN1CCN(c2ccc(S(=O)(=O)[C@@H]3C[C@@H](C(=O)NC4(C#N)CC4)N(c4ncccc4C(F)(F)F)C3)c(Cl)c2)CC1 [Example 190, (2S,4R)-4-[2-Chloro-4-(4-ethyl-piperazin-1-yl)-benzenesulfonyl]-1-(3-trifluoromethyl-pyridin-2-yl)-pyrrolidine-2-carboxylic acid (1-cyano-cyclopropyl)-amide]
10 | 0.12 nM | 24 nM | N#CC1(NC(=O)[C@@H]2C[C@@H](S(=O)(=O)c3ccccc3Cl)CN2C(=O)C2(c3ccc(Cl)cc3)CCC2)CC1 [Example 283, (2S,4R)-4-(2-Chloro-benzenesulfonyl)-1-[1-(4-chloro-phenyl)-cyclobutanecarbonyl]-pyrrolidine-2-carboxylic acid (1-cyano-cyclopropyl)-amide]
11 | 0.8 nM | ≥ 25000 nM | N#CCNC(=O)[C@@H]1C[C@@H](S(=O)(=O)c2ccccc2C(F)(F)F)CN1c1ccccc1[N+](=O)[O-] [Example 164, (2S,4R)-1-(2-Nitro-phenyl)-4-(2-trifluoromethyl-benzenesulfonyl)-pyrrolidine-2-carboxylic acid cyanomethyl-amide]
12 | 2.2 nM | 12600 nM | N#CC1(NC(=O)[C@@H]2C[C@@H](S(=O)(=O)c3ccc(N4CCC(F)(F)C4)cc3Cl)CN2)CC1 [Example 136, (2S,4R)-4-[2-Chloro-4-(3,3-difluoro-pyrrolidin-1-yl)-benzenesulfonyl]-pyrrolidine-2-carboxylic acid (1-cyano-cyclopropyl)-amide formiate]
13 | 12.7 nM | ≥ 25000 nM | N#CC1(NC(=O)[C@@H]2C[C@@H](S(=O)(=O)c3ccccc3)CN2C(=O)c2ccccc2)CC1 [Example 73, (2S,4R)-4-Benzenesulfonyl-1-benzoyl-pyrrolidine-2-carboxylic acid (1-cyano-cyclopropyl)-amide]
14 | 0.327 nM | ≥ 25000 nM | N#CC1(NC(=O)[C@@H]2C[C@@H](S(=O)(=O)c3ccc(OCC(F)(F)F)cc3C(F)(F)F)CN2c2nnc(C(F)(F)F)s2)CC1 [Example 366, (2S,4R)-4-[4-(2,2,2-Trifluoro-ethoxy)-2-trifluoromethyl-benzenesulfonyl]-1-(5-trifluoromethyl-[1,3,4]thiadiazol-2-yl)-pyrrolidine-2-carboxylic acid (1-cyano-cyclopropyl)-amide]
15 | 5.85 nM | 52.5 nM | COc1cc(C2(C(=O)N3C[C@H](S(=O)(=O)c4ccccc4Cl)C[C@H]3C(=O)NC3(C#N)CC3)CC2)c(Cl)cc1Cl [Example 460, (2S,4R)-4-(2-Chloro-benzenesulfonyl)-1-[1-(2,4-dichloro-5-methoxy-phenyl)-cyclopropanecarbonyl]-pyrrolidine-2-carboxylic acid (1-cyano-cyclopropyl)-amide]
16 | 0.465 nM | 21100 nM | Cc1cc(N2C[C@H](S(=O)(=O)c3ccccc3C(F)(F)F)C[C@H]2C(=O)NC2(C#N)CC2)n(-c2cccc(Cl)c2)n1 [Example 233, (2S,4R)-1-[2-(3-Chloro-phenyl)-5-methyl-2H-pyrazol-3-yl]-4-(2-trifluoromethyl-benzenesulfonyl)-pyrrolidine-2-carboxylic acid (1-cyano-cyclopropyl)-amide]
17 | 0.9 nM | 275 nM | Cc1cc(N2C[C@H](S(=O)(=O)c3ccc(N4CCN(C(C)(C)C)CC4)cc3Cl)C[C@H]2C(=O)NC2(C#N)CC2)n(CCc2ccccc2)n1 [Example 485, (2S,4R)-4-[4-(4-tert-Butyl-piperazin-1-yl)-2-chloro-benzenesulfonyl]-1-(5-methyl-2-phenethyl-2H-pyrazol-3-yl)-pyrrolidine-2-carboxylic acid (1-cyano-cyclopropyl)-amide]
18 | 3 nM | ≥ 25000 nM | N#CC1(NC(=O)[C@@H]2C[C@@H](S(=O)(=O)c3ccc(N4CCOCC4=O)cc3C(F)(F)F)CN2)CC1 [Example 30, (2S,4R)-4-[4-(3-Oxo-morpholin-4-yl)-2-trifluoromethyl-benzenesulfonyl]-pyrrolidine-2-carboxylic acid (1-cyano-cyclopropyl)-amide hydrochloride]
19 | 0.85 nM | 22000 nM | N#CC1(NC(=O)[C@@H]2C[C@@H](S(=O)(=O)c3ccccc3Cl)CN2c2nc(Cl)ns2)CC1 [Example 486, (2S,4R)-4-(2-Chloro-benzenesulfonyl)-1-(3-chloro-[1,2,4]thiadiazol-5-yl)-pyrrolidine-2-carboxylic acid (1-cyano-cyclopropyl)-amide]
20 | 0.2 nM | ≥ 25000 nM | N#CCNC(=O)[C@@H]1C[C@@H](S(=O)(=O)c2ccccc2C(F)(F)F)CN1C(=O)C1CCCCC1 [Example 67, (2S,4R)-1-Cyclohexanecarbonyl-4-(2-trifluoromethyl-benzenesulfonyl)-pyrrolidine-2-carboxylic acid cyanomethyl-amide]
21 | 2.5 nM | 3880 nM | COCCOc1ccc(S(=O)(=O)[C@@H]2C[C@@H](C(=O)NC3(C#N)CC3)N(c3cc(C)nn3C3CCOCC3)C2)c(Cl)c1 [Example 488, (2S,4R)-4-[2-Chloro-4-(2-methoxy-ethoxy)-benzenesulfonyl]-1-[5-methyl-2-(tetrahydro-pyran-4-yl)-2H-pyrazol-3-yl]-pyrrolidine-2-carboxylic acid (1-cyano-cyclopropyl)-amide]
22 | 0.6 nM | 13500 nM | CC(C)C(=O)N1C[C@H](S(=O)(=O)c2ccc(Cl)cc2Cl)C[C@H]1C(=O)NC1(C#N)CC1 [Example 226, (2S,4R)-4-(2,4-Dichloro-benzenesulfonyl)-1-isobutyryl-pyrrolidine-2-carboxylic acid (1-cyano-cyclopropyl)-amide]
23 | 2530 nM | ≥ 25000 nM | CS(=O)(=O)[C@@H]1C[C@@H](C(=O)NC2(C#N)CC2)N(C(=O)C2(c3ccc(Cl)cc3)CC2)C1 [Example 409, (2S,4R)-1-[1-(4-Chloro-phenyl)-cyclopropanecarbonyl]-4-methanesulfonyl-pyrrolidine-2-carboxylic acid (1-cyano-cyclopropyl)-amide]
24 | 120 nM | ≥ 25000 nM | N#CC1(NC(=O)[C@@H]2C[C@@H](S(=O)(=O)c3ccccc3Cl)CN2CCC(F)(F)F)CC1 [Example 91, (2S,4R)-4-(2-Chloro-benzenesulfonyl)-1-(3,3,3-trifluoro-propyl)-pyrrolidine-2-carboxylic acid (1-cyano-cyclopropyl)-amide]
25 | 86.5 nM | ≥ 25000 nM | N#CCNC(=O)C12CC(F)(F)CN1CCC2S(=O)(=O)c1ccccc1 (centres unmarked) [Example 117, 1-Benzenesulfonyl-6,6-difluoro-tetrahydro-pyrrolizine-7a-carboxylic acid cyanomethyl-amide, diasteromer Δ2]
